This is an account of results in paper PMC12668308, “A Novel Antimalarial Agent that Inhibits Protein Synthesis in Plasmodium falciparum” (Angewandte Chemie (International Ed. in English), 2025).

For assay [1], the system named is Dd2 ELQ300 (Dd2 + pfcytb). The assay can be described thus: [3H]-hypoxanthine incorporation assay. The format is cell-based, Plasmodium falciparum. As for the experimental part: (§1) ^[a]72-h [^3H] hypoxanthhine incorporation assay. Data is expressed as mean±s.d..
(§2) P. falciparum asexual blood stage parasites were cultured in human red blood cells (RBC, Blutspende SRK, Zurich) at a hematocrit of 5% in RPMI 1640 medium. The RPMI 1640 medium (ThermoFisher Scientific #51800−043) was supplemented with the following: 24 mM NaHCO3 (pH 7.3, Sigma-Aldrich #31437−500G-R), 25 mM Hepes (Sigma-Aldrich #H4034−500G), 0.36 mM hypoxanthine (Sigma-Aldrich # H9377−25G), 100 µg mL^-1 neomycin (Sigma-Aldrich #N6386−100G) and 0.5% Albumax II (Thermo Fisher #11021−045). Additionally, 2 mM choline chloride (279 mg/L, Sigma-Aldrich #C7527−100G) was added to the culture to block the induction of sexual commitment as described. ^[31^] The RPMI 1640 medium and components were dissolved in water (Milli-Q purified), stirred for at least 3 h, and then sterile filtered (0.22 μm pore size) with a bottle top filter (Corning # 431118). Parasite cultures were maintained in an atmosphere of 3% O2, 4% CO2, and 93% N2 in air-tight chambers at 37 °C. The [^3H]-hypoxanthine incorporation assay was used to test compound activity in the specific parasite lines as described.^[32^] Briefly, compounds were dissolved in DMSO (10 mM) and diluted in a hypoxanthine-free culture medium. A limiting dilution was performed over a 64-fold range (6-step twofold dilution) in a 96-well plate in duplicates. For every starting concentration, a limiting dilution was performed over a 64-fold range (6-step twofold dilution) in a 96-well plate in two biological duplicates. Parasites were added at 100 µL to each well containing the compound to obtain a final parasitemia of 0.3% and haematocrit of 1.25%. The plates were incubated for 48 h before 0.25 µCi of [^3H]-hypoxanthine was added per well for an additional 24 h. Parasites were harvested on a glass-fiber filter with a Microbeta FilterMate cell harvester (Perkin Elmer, Waltham, USA) and radioactivity was counted using a MicroBeta2 liquid scintillation counter (Perkin Elmer, Waltham, US). The results were recorded, processed by subtraction of the mean background signal obtained from the uninfected RBC controls and expressed as percentage of untreated controls. The fifty percent inhibitory concentration (IC50) was calculated by using nonlinear, four parameter (variable slope) curve fitting as described ^[33^] after importing into GraphPad Prism (version 8.3.0).

Assay [2] relates to Dd2 GNF156 (Dd2 + pfcarl). In words: [3H]-hypoxanthine incorporation assay. It is filed as cell-based, Plasmodium falciparum. On the procedure: as §1, §2
In a further assay the test system is P. falciparum Dd2. In words: [3H]-hypoxanthine incorporation assay. It is filed as cell-based, Plasmodium falciparum. As for the experimental part: as §1, §2
The test system of another assay is P. falciparum K1. The assay can be described thus: [3H]-hypoxanthine incorporation assay. The format is cell-based, Plasmodium falciparum. As for the experimental part: as §1, §2
Assay [3] concerns laboratory-selected Dd2 strains. In words: [3H]-hypoxanthine incorporation assay. To be noted: Plasmodium falciparum, DD2, read-out: IC50 against the laboratory-selected Dd2 strains. It is filed as cell-based. On the procedure: To determine potential cross resistance against compound 31 in parasites harboring mutations that confer resistance to current antimalarials, its activity was assessed against drug‐resistant field isolates as previously described. […] A cross‐resistance was considered when there was more than a 10‐fold shift in the IC50 relative to the NF54 strain. […] Because of this, 31 was tested against laboratory‐selected Dd2 strains, which contained additional resistance variants to preclinical and clinical drug candidates.
P. falciparum asexual blood stage parasites were cultured in human red blood cells (RBC, Blutspende SRK, Zurich) at a hematocrit of 5% in RPMI 1640 medium. […] Parasites were harvested on a glass-fiber filter with a Microbeta FilterMate cell harvester (Perkin Elmer, Waltham, USA) and radioactivity was counted using a MicroBeta2 liquid scintillation counter (Perkin Elmer, Waltham, US). The results were recorded, processed by subtraction of the mean background signal obtained from the uninfected RBC controls and expressed as percentage of untreated controls. The fifty percent inhibitory concentration (IC50) was calculated by using nonlinear, four parameter (variable slope) curve fitting as described ^[33^] after importing into GraphPad Prism (version 8.3.0).

A further assay relates to 3D7^WT. In words: [3H]-hypoxanthine incorporation assay. It is filed as cell-based. To be noted: Plasmodium falciparum, 3D7; 72-h assay; mean±s.d.; read-out: 3D7^WT IC50. As for the experimental part:
^[a] 72-h [^3H] hypoxanthhine incorporation assay; Data is expressed as mean±s.d.. The assay was performed in three independent biological experiments, each in biological duplicates.
as §2

Assay [4] deals with Ribosome associated membrane protein RAMP4 (W7KMX9). In words: iSPP profiling, P. falciparum lysate. The format is binding, Plasmodium falciparum. Particulars: 100 µM compound 34. As for the experimental part:
P. falciparum NF54 lysates were extracted as described in ^[26^] . The parasite asynchronous culture was extracted once 3-5% parasitemia was reached. Saponin lysis was done as described in 2.2.10. Once the parasite pellet was obtained, 2.5 volumes of ice-cold lysis buffer (50 mM Tris/HCl pH 7.5 (Avantor), 5% glycerol (Sigma-Aldrich), 150 mM NaCl (Carl Roth), 1.5 mM MgCl2 (Sigma-Aldrich), 1 mM DTT (Carl Roth), 0.8% IGEPAL CA-630 (Sigma-Aldrich), 1X Halt Protease and Phosphatase Inhibitor-Cocktails EDTA-free (Thermo Fisher Scientific)) was added to the parasite pellet. The lysate solution was subjected to three cycles of flash freeze-thaw with liquid nitrogen and ddH2O at RT. The lysates were centrifuged at 20,000 g for 20 minutes at 4 °C. The soluble protein fraction (supernatant) was collected and the protein content was quantified using the BCA assay (Pierce™ BCA Protein Assay Kit, Thermo Fisher Scientific). The lysate was stored at -80 °C until further use.
The P. falciparum lysate was thawed on ice and diluted to 0.8 mg/mL. The lysate was aliquoted, and each aliquot was incubated with either a vehicle control (DMSO), 34 (dissolved in DMSO), or varying concentrations of 31 (dissolved in DMSO) at 0.01 µM, 0.1 µM, 10 µM, 50 µM, and 100 µM. Subsequently, the samples were incubated at room temperature for 30 minutes using a rotating mixer. After distribution into a 96-well plate, the samples were treated with increasing concentrations of A.E.A. (v/v) ranging from 14% to 28% (14, 16, 18, 20, 22, 24, 26, and 28%). Following a 20-minute incubation at 37°C with shaking at 750 rpm, the samples were centrifuged at 4400 g for 35 minutes to remove precipitated proteins. The soluble fractions were then pooled in equal volumes into a single sample using the Bravo Automated Liquid Handling Platform. The pooled samples were subsequently prepared for LC-MS/MS analysis.
The raw LFQ-DIA intensity values of biological replicates across all conditions were normalized to the median abundance using Excel. The normalized values were then log2 transformed in Perseus (v2.0.10.0).^[58^] Missing values were imputed from a normal distribution (width 0.3, down shift 1.5), and p-values were obtained using a two-sample t-test over replicates with a permutation-based false discovery rate correction (FDR 0.05). Volcano plots were generated in RStudio using the EnhancedVolcano package (v. 1.20.0), ^[59^] plotting proteins by statistical significance (y-axis: –Log10 p-value) versus the magnitude of change (x-axis: log2 fold change of protein intensities for each compound condition relative to the vehicle control). The heatmap was generated in Perseus (v2.0.10.0). Dose-dependent curves were generated using normalized protein intensity values, expressed as a ratio to the vehicle control. Plots were created in GraphPad Prism (v8.3.0) using a nonlinear regression model.

Where [5] appears, read: Plasmodium falciparum, DD2, 72 h.

The term IC50 denotes the concentration needed to halve the response being measured.

SMILES strings stand for the structures.

As to `CN1CCN(Cc2ccc(O)c(NC(=O)c3cccc(Oc4cc(C(F)(F)F)ccn4)c3)c2)CC1` [Compound 31, N-(2-hydroxy-5-((4-methylpiperazin-1-yl)methyl)phenyl)-3-((4-(trifluoromethyl)pyridin-2-yl)oxy)benzamide], the “IC50 fold shift relative to Dd2 strain” value in assay [1] (Dd2 ELQ300) worked out at 0.5; in assay [2] (Dd2 GNF156), 0.7; in the assay with P. falciparum Dd2 (Dd2), 1.0. For the same compound, the IC50 is 4.4 ± 0.1 nM in assay [1] (setting [5]); 6.6 ± 0.5 nM in assay [2] (setting [5]); 9.3 ± 0.4 nM with P. falciparum Dd2 (setting [5]); 1.3 ± 0.2 nM in the assay on P. falciparum K1 (Plasmodium falciparum, K1, 72 h); 2.4 to 6.6 nM in assay [3]; 2.4 ± 0.3 nM in the assay on 3D7^WT. Moreover, the entries for the “IC50 ratio relative to NF54 strain” value in the assay with P. falciparum Dd2 (Dd2) and with P. falciparum K1 (K1) were 5.1 and 0.7, respectively.
Turning to `O=C(Nc1cc(CN2CCOCC2)ccc1F)c1cccc(Oc2cc(C(F)(F)F)ccn2)c1` [Compound 34, N-(2-Fluoro-5-(morpholinomethyl)phenyl)-3-((4-(trifluoromethyl)pyridin-2-yl)oxy)benzamide], in assay [4], the log2FC was 0.4453.
